Holding throughout (assay type): biochemical
Assay [1] addresses T1, CDK2/cyclinE1 (Homo sapiens, UniProt P24941).
T1 construct: purchased Carna Biosciences 04-165
Nature of the assay: Cyclin-dependent kinase activity assay (continuous ATP coupling assay), CDK2/cyclinE1. The settings on record: CDK2/cyclinE1 5 nM, ATP 300 μM, Rb copeptide 100 μM, 15 min preincubation, pH 7.5, 1% DMSO. The method in brief: (§1)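 PK/LDH-coupled continuous assay, ATP at each kinase's Km, Tris pH 7.5 with 1% DMSO final; enzyme preincubated 15 min with compound (10 μM to 0.05 nM, 1:3), NADH fluorescence decrease (ex 340/em 460) gave velocities. IC50 by 4-variable fit; Ki by quadratic/Morrison fit.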

Assay [2] addresses T2, CDK6/cyclinD3 (Homo sapiens, UniProt Q00534).
T2 construct: purchased Carna Biosciences 04-107
Nature of the assay: Cyclin-dependent kinase activity assay (continuous ATP coupling assay), CDK6/cyclinD3. The conditions noted are these: CDK6/cyclinD3 25 nM, ATP 500 μM, Rb copeptide 500 μM, 15 min preincubation, pH 7.5, 1% DMSO. The method in brief:
as §1

Assay [3] concerns the target T3, CDK1/cyclinB1 (Homo sapiens, UniProt P06493).
T3 construct: purchased Carna Biosciences 04-102
The assay is described as follows: Cyclin-dependent kinase activity assay (continuous ATP coupling assay), CDK1/cyclinB1. The conditions noted are these: CDK1/cyclinB1 10 nM, ATP 200 μM, Histone1 copeptide 100 μM, 15 min preincubation, pH 7.5, 1% DMSO. The method, boiled down:
as §1

The target of assay [4] is T4, CDK4/cyclinD3 (Homo sapiens, UniProt P11802).
T4 construct: purchased Carna Biosciences 04-105
The assay is described as follows: Cyclin-dependent kinase activity assay (continuous ATP coupling assay), CDK4/cyclinD3. The conditions noted are these: CDK4/cyclinD3 60 nM, ATP 500 μM, Rb copeptide 500 μM, 15 min preincubation, pH 7.5, 1% DMSO. The method, boiled down: as §1

T2 sequence (Q00534 whole entry): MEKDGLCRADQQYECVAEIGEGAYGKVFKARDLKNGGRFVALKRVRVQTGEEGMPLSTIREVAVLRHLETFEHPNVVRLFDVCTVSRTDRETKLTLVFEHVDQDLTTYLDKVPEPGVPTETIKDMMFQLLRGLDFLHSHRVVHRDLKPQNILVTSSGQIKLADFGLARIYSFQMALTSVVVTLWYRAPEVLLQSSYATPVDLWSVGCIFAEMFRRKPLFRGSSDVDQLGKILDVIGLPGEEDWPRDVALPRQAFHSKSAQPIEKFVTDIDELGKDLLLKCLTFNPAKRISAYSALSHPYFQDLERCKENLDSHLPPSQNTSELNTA
T2 sequence (P30281 whole entry partner): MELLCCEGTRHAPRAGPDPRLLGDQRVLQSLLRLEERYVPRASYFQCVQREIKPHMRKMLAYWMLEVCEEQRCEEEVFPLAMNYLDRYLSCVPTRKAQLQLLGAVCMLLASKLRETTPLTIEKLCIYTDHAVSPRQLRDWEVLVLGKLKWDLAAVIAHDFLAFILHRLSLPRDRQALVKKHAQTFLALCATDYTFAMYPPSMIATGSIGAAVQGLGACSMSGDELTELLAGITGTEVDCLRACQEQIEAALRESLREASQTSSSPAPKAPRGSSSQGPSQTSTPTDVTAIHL
T3 sequence (P06493 whole entry): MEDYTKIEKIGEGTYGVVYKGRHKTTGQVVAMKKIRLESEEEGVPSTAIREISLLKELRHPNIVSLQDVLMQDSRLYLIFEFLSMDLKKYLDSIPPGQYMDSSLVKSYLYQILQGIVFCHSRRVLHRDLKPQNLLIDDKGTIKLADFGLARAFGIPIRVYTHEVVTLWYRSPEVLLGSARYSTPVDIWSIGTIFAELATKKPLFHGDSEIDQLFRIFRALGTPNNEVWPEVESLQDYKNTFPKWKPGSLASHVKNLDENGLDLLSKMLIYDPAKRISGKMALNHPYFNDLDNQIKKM
T3 sequence (P14635 whole entry partner): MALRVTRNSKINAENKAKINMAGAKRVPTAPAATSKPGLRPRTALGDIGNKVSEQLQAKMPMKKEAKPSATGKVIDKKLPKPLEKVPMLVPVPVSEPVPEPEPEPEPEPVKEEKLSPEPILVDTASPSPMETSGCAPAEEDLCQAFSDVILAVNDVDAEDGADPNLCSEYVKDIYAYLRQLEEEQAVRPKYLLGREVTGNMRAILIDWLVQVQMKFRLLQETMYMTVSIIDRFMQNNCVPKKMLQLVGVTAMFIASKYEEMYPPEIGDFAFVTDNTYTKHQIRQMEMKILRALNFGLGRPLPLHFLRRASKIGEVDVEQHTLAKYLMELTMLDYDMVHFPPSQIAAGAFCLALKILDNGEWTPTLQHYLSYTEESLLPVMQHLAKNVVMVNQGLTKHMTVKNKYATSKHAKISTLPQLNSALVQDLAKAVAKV
T4 sequence (P11802 whole entry): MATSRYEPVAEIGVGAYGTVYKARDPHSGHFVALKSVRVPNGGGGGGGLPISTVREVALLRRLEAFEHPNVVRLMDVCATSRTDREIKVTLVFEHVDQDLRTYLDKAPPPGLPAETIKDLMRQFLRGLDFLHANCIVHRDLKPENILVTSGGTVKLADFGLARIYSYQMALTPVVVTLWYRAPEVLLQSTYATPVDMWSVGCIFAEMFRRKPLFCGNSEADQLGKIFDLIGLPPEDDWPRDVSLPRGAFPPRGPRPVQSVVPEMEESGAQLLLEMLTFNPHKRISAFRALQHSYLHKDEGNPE
T4 sequence (P30281 whole entry partner): as the sequence (P30281 whole entry partner) above

In general, IC50 refers to the concentration that gives 50% inhibition. Low readings indicate greater potency, high ones weaker potency. `CNS(=O)(=O)c1ccc(Nc2ncc(C(F)(F)F)c(-n3cc(C[C@H](C)O)cn3)n2)cc1` (single isomer, unassigned) [Example 6]: the IC50 in assay [1] is at most 10 nM; in assay [2] it was 10 to 100 nM; in assay [3], 10 to 100 nM; in assay [4], 10 to 100 nM.

In the case of `O=S(=O)(NCCCCO)c1ccc(Nc2ncc(C(F)(F)F)c(-n3cccn3)n2)cc1` [Example 113], the IC50 was at most 10 nM in assay [1], at least 100 nM in assay [2], at least 100 nM in assay [3] and at least 100 nM in assay [4].

For the compound `O=S(=O)(NCCO)c1ccc(Nc2ncc(C(F)(F)F)c(-n3cccn3)n2)cc1` [Example 36, 4-((4-(1H-pyrazol-1-yl)-5-(trifluoromethyl)pyrimidin-2-yl)amino)-N-(2-hydroxyethyl) benzene sulfonamide], the IC50 in assay [1] was at most 10 nM; in assay [2] it was at least 100 nM; in assay [3] it was 10 to 100 nM; in assay [4], at least 100 nM.

On to `CNS(=O)(=O)c1ccc(Nc2ncc(C(F)(F)F)c(-n3cc(C(F)(F)F)cn3)n2)cc1` [Example 47], for which the IC50 is 10 to 100 nM in assay [1], at least 100 nM in assay [2], 10 to 100 nM in assay [3] and at least 100 nM in assay [4].

In the case of `CC(CO)NS(=O)(=O)c1ccc(Nc2ncc(C(F)(F)F)c(-n3cccn3)n2)cc1` (centres unmarked) [Example 133], the IC50 is at most 10 nM in assay [1], at least 100 nM in assay [2], 10 to 100 nM in assay [3] and at least 100 nM in assay [4].

With `N#Cc1cnc(Nc2ccc(S(=O)(=O)NCCO)cc2)nc1-n1cccn1` [Example 119], the IC50 in assay [1] is 10 to 100 nM; in assay [2] it was 10 to 100 nM; in assay [3], at least 100 nM; in assay [4] it was at least 100 nM.

Consider `[2H]C([2H])([2H])NS(=O)(=O)c1ccc(Nc2ncc(C(F)(F)F)c(-n3cc(CCC(C)(C)O)cn3)n2)cc1` [Example 61], for which the IC50 is at most 10 nM in assay [1], at least 100 nM in assay [2], at least 100 nM in assay [3] and 10 to 100 nM in assay [4].

Regarding `CN(C)CCNS(=O)(=O)c1ccc(Nc2ncc(C(F)(F)F)c(-n3cccn3)n2)cc1` [Example 43], the IC50 in assay [1] was at most 10 nM; in assay [2] it was 10 to 100 nM; in assay [3] it was 10 to 100 nM; in assay [4], 10 to 100 nM.

In the case of `O=S(=O)(NCC1(O)CC1)c1ccc(Nc2ncc(C(F)(F)F)c(-n3cccn3)n2)cc1` [Example 131], the IC50 is at most 10 nM in assay [1], at least 100 nM in assay [2], at least 100 nM in assay [3] and at least 100 nM in assay [4].

As for `Cc1cc(Nc2ncc(C(F)(F)F)c(-n3cccn3)n2)ccc1S(=O)(=O)NCCO` [Example 125], the IC50 in assay [1] is 10 to 100 nM; in assay [2], at least 100 nM; in assay [3], at least 100 nM; in assay [4] it was at least 100 nM.

Consider `CNS(=O)(=O)c1ccc(Nc2ncc(C(F)(F)F)c(-n3cc(C4CN(S(C)(=O)=O)C4)cn3)n2)cc1` [Example 98], for which the IC50 in assay [1] is 10 to 100 nM; in assay [2], at least 100 nM; in assay [3], at least 100 nM; in assay [4], at least 100 nM.

`O=C1NCc2cc(Nc3ncc(C(F)(F)F)c(-n4cccn4)n3)ccc21` [Example 39]: the IC50 in assay [1], in assay [2], in assay [3] and in assay [4] was at least 100 nM throughout.

On to `CNS(=O)(=O)c1ccc(Nc2ncc(Cl)c(-n3cccn3)n2)cc1` [Example 24], for which the IC50 in assay [1] is 10 to 100 nM; in assay [2], at least 100 nM; in assay [3], at least 100 nM; in assay [4], at least 100 nM.

`CNS(=O)(=O)c1ccc(Nc2ncc(C(F)(F)F)c(-n3cc([C@H]4C[C@@](C)(O)C4)cn3)n2)cc1` (single isomer, unassigned) [Example 105, 4-((4-(4-((1r,3r)-3-hydroxy-3-methylcyclobutyl)-1H-pyrazol-1-yl)-5-(trifluoromethyl)pyrimidin-2-yl)amino)-N-methylbenzenesulfonamide]: the IC50 in assay [1], in assay [2], in assay [3] and in assay [4] was 10 to 100 nM in each case.

As to `CNS(=O)(=O)c1ccc(Nc2ncc(C(F)(F)F)c(-n3cc(CC(C)(C)O)c(C)n3)n2)cc1` [Example 70], the IC50 in assay [1] is 10 to 100 nM; in assay [2] it was at least 100 nM; in assay [3], at least 100 nM; in assay [4], at least 100 nM.

For the compound `CNS(=O)(=O)c1ccc(Nc2ncc(C(F)(F)F)c(-n3cc([C@H]4CCC[C@H]4O)cn3)n2)cc1` (single isomer, unassigned) [Example 77], the IC50 in assay [1] was 10 to 100 nM; in assay [2] it was at least 100 nM; in assay [3], 10 to 100 nM; in assay [4] it was 10 to 100 nM.

Regarding `CC(C)(O)Cc1cnn(-c2nc(N[C@@H]3CCOC[C@H]3O)ncc2C(F)(F)F)c1` (single isomer, unassigned) [Example 8], the IC50 in assay [1] was at least 100 nM; in assay [2], 10 to 100 nM; in assay [3], at least 100 nM; in assay [4], 10 to 100 nM.

Consider `CNS(=O)(=O)c1ccc(Nc2ncc(C(F)(F)F)c(-n3cc(C4CCN(C)CC4)cn3)n2)cc1` [Example 80, N-methyl-4-[[4-[4-(1-methyl-4-piperidyl)pyrazol-1-yl]-5-(trifluoromethyl)pyrimidin-2-yl]amino]benzene sulfonamide], for which the IC50 in assay [1] is at most 10 nM; in assay [2], 10 to 100 nM; in assay [3] it was 10 to 100 nM; in assay [4], 10 to 100 nM.

Regarding `CNS(=O)(=O)c1ccc(Nc2nccc(-n3cccn3)n2)cc1` [Example 23], the IC50 in assay [1], in assay [2], in assay [3] and in assay [4] was at least 100 nM each time.

For the compound `CNS(=O)(=O)c1ccc(Nc2nccc(-n3cc(CC(C)(C)O)cn3)n2)cc1` [Example 67], the IC50 in assay [1] was 10 to 100 nM; in assay [2], at least 100 nM; in assay [3], at least 100 nM; in assay [4], at least 100 nM.

For the compound `FC(F)(F)c1cnc(Nc2ccc(S(F)(F)(F)(F)F)cc2)nc1-n1cccn1` [Example 34], the IC50 in assay [1], in assay [2], in assay [3] and in assay [4] was at least 100 nM each time.

As for `O=S1(=O)NCc2cc(Nc3ncc(C(F)(F)F)c(-n4cccn4)n3)ccc21` [Example 42, 1,1-dioxo-N-[4-pyrazol-1-yl-5-(trifluoromethyl)pyrimidin-2-yl]-2,3-dihydro-1,2-benzothiazol-5-amine], the IC50 in assay [1], in assay [2], in assay [3] and in assay [4] was at least 100 nM each time.

`O=S(=O)(NCCO)c1ccc(Nc2ncc(C(F)(F)F)c(-n3cccn3)n2)cn1` [Example 136, N-(2-hydroxyethyl)-5-[[4-pyrazol-1-yl-5-(trifluoromethyl)pyrimidin-2-yl]amino]pyridine-2-sulfonamide]: the IC50 in assay [1] was at most 10 nM; in assay [2], at least 100 nM; in assay [3], at least 100 nM; in assay [4], at least 100 nM.

On to `COCCNS(=O)(=O)c1ccc(Nc2ncc(C(F)(F)F)c(-n3cccn3)n2)cc1` [Example 127], for which the IC50 was 10 to 100 nM in assay [1], at least 100 nM in assay [2], at least 100 nM in assay [3] and at least 100 nM in assay [4].

As for `CNS(=O)(=O)c1ccc(Nc2ncc(C(F)(F)F)c(-n3cc(C(C)(C)C#N)cn3)n2)cc1` [Example 49, 4-[[4-[4-(1-cyano-1-methyl-ethyl)pyrazol-1-yl]-5-(trifluoromethyl)pyrimidin-2-yl]amino]-N-methyl-benzene sulfonamide], the IC50 in assay [1], in assay [2], in assay [3] and in assay [4] was 10 to 100 nM each time.

In the case of `CNS(=O)(=O)c1ccc(Nc2ncc(C(F)(F)F)c(-n3cc([C@H]4CCCN4)cn3)n2)cc1` [Example 91, (R)—N-methyl-4-((4-(4-(pyrrolidin-2-yl)-1H-pyrazol-1-yl)-5-(trifluoromethyl)pyrimidin-2-yl)amino)benzenesulfonamide], the IC50 in assay [1] is at most 10 nM; in assay [2], 10 to 100 nM; in assay [3] it was 10 to 100 nM; in assay [4], 10 to 100 nM.
